Reference: US11987586B1 (TAKEDA PHARMACEUTICAL COMPANY LIMITED, priority 2022, dated 2024)

molecular target: T1, human OX2 receptor (Homo sapiens, UniProt O43614); test: Measurement of orexin type 2 receptor agonist activity (calcium fluorescence, Fluo-4, FDSS); assay type: cell-based; conditions: 3 uM test compound; CHO cells expressing human OX2 receptor; DMSO = 0%, 10 nM orexin A (human) = 100%
T1 construct: expressed in transfected cells
T1 sequence (O43614 1-444): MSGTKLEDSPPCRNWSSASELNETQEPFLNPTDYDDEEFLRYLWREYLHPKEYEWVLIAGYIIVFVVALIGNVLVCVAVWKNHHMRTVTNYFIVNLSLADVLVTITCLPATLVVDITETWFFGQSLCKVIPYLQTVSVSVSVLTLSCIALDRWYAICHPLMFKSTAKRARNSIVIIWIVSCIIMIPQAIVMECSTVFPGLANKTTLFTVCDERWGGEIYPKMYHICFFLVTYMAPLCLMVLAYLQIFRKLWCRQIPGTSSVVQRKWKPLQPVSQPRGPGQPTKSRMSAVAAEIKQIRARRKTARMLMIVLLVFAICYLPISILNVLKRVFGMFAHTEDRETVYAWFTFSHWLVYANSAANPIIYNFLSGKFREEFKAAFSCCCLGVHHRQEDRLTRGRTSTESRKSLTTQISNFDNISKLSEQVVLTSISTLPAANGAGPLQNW
In short: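 CHO-K1 cells stably expressing human OX2 receptor (residues 1-444) were loaded with Fluo-4 AM plus probenecid. Calcium fluorescence after compound addition was recorded for 1 min 40 s. Activity (%) was scaled between DMSO (0%) and 10 nM orexin A final (100%).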

Row | OX2R agonist activity (3 uM, %) [%] | SMILES
1 | 112 | CCS(=O)(=O)N[C@@H]1CN2C(=O)N(c3noc4cc(C)nc(-c5c(F)cc(F)cc5F)c34)CC[C@@H]2C1(F)F [Example 220, N-{(4aR,6R)-5,5-difluoro-2-[6-methyl-4-(2,4,6-trifluorophenyl)[1,2]oxazolo[4,5-c]pyridin-3-yl]-1-oxooctahydropyrrolo[1,2-c]pyrimidin-6-yl}ethanesulfonamide]
2 | 104 | CCS(=O)(=O)N[C@@H]1CN2C(=O)N(c3noc4cc(COC)c(F)c(-c5c(F)cccc5F)c34)CC[C@@H]2C1(F)F [Example 221, N-{(4aR,6R)-2-[4-(2,6-difluorophenyl)-5-fluoro-6-(methoxymethyl)-1,2-benzoxazol-3-yl]-5,5-difluoro-1-oxooctahydropyrrolo[1,2-c]pyrimidin-6-yl}ethanesulfonamide]
3 | 107 | COCc1cc(-c2c(F)cc(F)cc2F)c2c(N3CC[C@H]4N(C[C@@H](NS(=O)(=O)C5CC5)C4(F)F)C3=O)noc2c1 [Example 222, N-{(4aR,6R)-5,5-difluoro-2-[6-(methoxymethyl)-4-(2,4,6-trifluorophenyl)-1,2-benzoxazol-3-yl]-1-oxooctahydropyrrolo[1,2-c]pyrimidin-6-yl}cyclopropanesulfonamide]
4 | 104 | CS(=O)(=O)N[C@@H]1CN2C(=O)N(c3noc4cccc(-c5ccccc5)c34)CC[C@@H]2C1(F)F [Example 223, N-[(4aR,6R)-5,5-difluoro-1-oxo-2-(4-phenyl-1,2-benzoxazol-3-yl)octahydropyrrolo[1,2-c]pyrimidin-6-yl]methanesulfonamide]
5 | 109 | CS(=O)(=O)N[C@@H]1CN2C(=O)N(c3noc4cc(Br)cc(-c5c(F)cccc5F)c34)CC[C@@H]2C1(F)F [Example 224, N-{(4aR,6R)-2-[6-bromo-4-(2,6-difluorophenyl)-1,2-benzoxazol-3-yl]-5,5-difluoro-1-oxooctahydropyrrolo[1,2-c]pyrimidin-6-yl}methanesulfonamide]
6 | 106 | CS(=O)(=O)N[C@@H]1CN2C(=O)N(c3noc4cc(C(F)(F)F)cc(-c5c(F)cc(F)cc5F)c34)CC[C@@H]2C1(F)F [Example 225, N-{(4aR,6R)-5,5-difluoro-1-oxo-2-[6-(trifluoromethyl)-4-(2,4,6-trifluorophenyl)-1,2-benzoxazol-3-yl]octahydropyrrolo[1,2-c]pyrimidin-6-yl}methanesulfonamide]
7 | 93 | COCc1cc2onc(-n3cc4n(c3=O)C[C@@H](NS(C)(=O)=O)C4(F)F)c2c(-c2c(F)cccc2F)c1F [Example 226, N-{(6R)-2-[4-(2,6-difluorophenyl)-5-fluoro-6-(methoxymethyl)-1,2-benzoxazol-3-yl]-7,7-difluoro-3-oxo-2,5,6,7-tetrahydro-3H-pyrrolo[1,2-c]imidazol-6-yl}methanesulfonamide]
8 | 98 | COCc1cc2onc(N3CC[C@H]4N(C[C@@H](NS(C)(=O)=O)C4(F)F)C3=O)c2c(-c2c(F)cc(F)cc2F)c1F [Example 227, N-{(4aR,6R)-5,5-difluoro-2-[5-fluoro-6-(methoxymethyl)-4-(2,4,6-trifluorophenyl)-1,2-benzoxazol-3-yl]-1-oxooctahydropyrrolo[1,2-c]pyrimidin-6-yl}methanesulfonamide]
9 | 102 | CCOc1cc2onc(N3CC[C@H]4N(C[C@@H](NS(C)(=O)=O)C4(F)F)C3=O)c2c(-c2c(F)cccc2F)c1F [Example 228, N-{(4aR,6R)-2-[4-(2,6-difluorophenyl)-6-ethoxy-5-fluoro-1,2-benzoxazol-3-yl]-5,5-difluoro-1-oxooctahydropyrrolo[1,2-c]pyrimidin-6-yl}methanesulfonamide]
10 | 113 | Cc1cc2onc(-n3cc4n(c3=O)C[C@@H](NS(C)(=O)=O)C4(F)F)c2c(-c2c(F)cc(F)cc2F)n1 [Example 229, N-{(6R)-7,7-difluoro-2-[6-methyl-4-(2,4,6-trifluorophenyl)[1,2]oxazolo[4,5-c]pyridin-3-yl]-3-oxo-2,5,6,7-tetrahydro-3H-pyrrolo[1,2-c]imidazol-6-yl}methanesulfonamide]
11 | 111 | CCc1cc(-c2c(F)cc(F)cc2F)c2c(-n3cc4n(c3=O)C[C@@H](NS(C)(=O)=O)C4(F)F)noc2n1 [Example 230, N-{(6R)-2-[6-ethyl-4-(2,4,6-trifluorophenyl)[1,2]oxazolo[5,4-b]pyridin-3-yl]-7,7-difluoro-3-oxo-2,5,6,7-tetrahydro-3H-pyrrolo[1,2-c]imidazol-6-yl}methanesulfonamide]
12 | 107 | CCS(=O)(=O)N[C@@H]1CN2C(=O)N(c3noc4cc(COC)cc(-c5c(F)cc(F)cc5F)c34)CC[C@@H]2C1(F)F [Example 232, N-{(4aR,6R)-5,5-difluoro-2-[6-(methoxymethyl)-4-(2,4,6-trifluorophenyl)-1,2-benzoxazol-3-yl]-1-oxooctahydropyrrolo[1,2-c]pyrimidin-6-yl}ethanesulfonamide]
13 | 109 | Cc1cc2onc(N3CC[C@H]4N(C[C@@H](NS(=O)(=O)C5CC5)C4(F)F)C3=O)c2c(-c2c(F)cc(F)cc2F)n1 [Example 233, N-{(4aR,6R)-5,5-difluoro-2-[6-methyl-4-(2,4,6-trifluorophenyl)[1,2]oxazolo[4,5-c]pyridin-3-yl]-1-oxooctahydropyrrolo[1,2-c]pyrimidin-6-yl}cyclopropanesulfonamide]

The next lines start with the compound.

Row | SMILES | OX2R agonist activity (3 uM, %) [%]
14 | CS(=O)(=O)N[C@@H]1CN2C(=O)N(c3noc4cc(F)cc(-c5c(F)cc(F)cc5F)c34)CC[C@@H]2C1(F)F [Example 208, N-{(4aR,6R)-5,5-difluoro-2-[6-fluoro-4-(2,4,6-trifluorophenyl)-1,2-benzoxazol-3-yl]-1-oxooctahydropyrrolo[1,2-c]pyrimidin-6-yl}methanesulfonamide] | 102
15 | Cc1cc(-c2c(F)cccc2F)c2c(N3CC[C@H]4N(C[C@@H](NS(C)(=O)=O)C4(F)F)C3=O)noc2c1 [Example 209, N-{(4aR,6R)-2-[4-(2,6-difluorophenyl)-6-methyl-1,2-benzoxazol-3-yl]-5,5-difluoro-1-oxooctahydropyrrolo[1,2-c]pyrimidin-6-yl}methanesulfonamide] | 96
16 | COCc1cc(-c2c(F)cc(F)cc2F)c2c(N3CC[C@H]4N(C[C@@H](NS(C)(=O)=O)C4(F)F)C3=O)noc2c1 [Example 210, N-{(4aR,6R)-5,5-difluoro-2-[6-(methoxymethyl)-4-(2,4,6-trifluorophenyl)-1,2-benzoxazol-3-yl]-1-oxooctahydropyrrolo[1,2-c]pyrimidin-6-yl}methanesulfonamide] | 94
17 | CCS(=O)(=O)N[C@@H]1Cn2c(cn(-c3noc4nc(C5CC5)cc(-c5c(F)cccc5F)c34)c2=O)C1(F)F [Example 211, N-{(6R)-2-[6-cyclopropyl-4-(2,6-difluorophenyl)[1,2]oxazolo[5,4-b]pyridin-3-yl]-7,7-difluoro-3-oxo-2,5,6,7-tetrahydro-3H-pyrrolo[1,2-c]imidazol-6-yl}ethanesulfonamide] | 108
18 | CCS(=O)(=O)N[C@@H]1Cn2c(cn(-c3noc4cc(COC)c(F)c(-c5c(F)cccc5F)c34)c2=O)C1(F)F [Example 212, N-{(6R)-2-[4-(2,6-difluorophenyl)-5-fluoro-6-(methoxymethyl)-1,2-benzoxazol-3-yl]-7,7-difluoro-3-oxo-2,5,6,7-tetrahydro-3H-pyrrolo[1,2-c]imidazol-6-yl}ethanesulfonamide] | 100
19 | COCc1cc(-c2c(F)cccc2F)c2c(N3CC[C@H]4N(C[C@@H](NS(C)(=O)=O)C4(F)F)C3=O)noc2c1 [Example 215, N-{(4aR,6R)-2-[4-(2,6-difluorophenyl)-6-(methoxymethyl)-1,2-benzoxazol-3-yl]-5,5-difluoro-1-oxooctahydropyrrolo[1,2-c]pyrimidin-6-yl}methanesulfonamide] | 99
20 | CCOc1cc(-c2c(F)cc(F)cc2F)c2c(N3CC[C@H]4N(C[C@@H](NS(C)(=O)=O)C4(F)F)C3=O)noc2c1 [Example 217, N-{(4aR,6R)-2-[6-ethoxy-4-(2,4,6-trifluorophenyl)-1,2-benzoxazol-3-yl]-5,5-difluoro-1-oxooctahydropyrrolo[1,2-c]pyrimidin-6-yl}methanesulfonamide] | 104
21 | Cc1cc2onc(-n3cc4n(c3=O)C[C@@H](NS(=O)(=O)N(C)C)C4(F)F)c2c(-c2c(F)cc(F)cc2F)n1 [Example 218, N′-{(6R)-7,7-difluoro-2-[6-methyl-4-(2,4,6-trifluorophenyl)[1,2]oxazolo[4,5-c]pyridin-3-yl]-3-oxo-2,5,6,7-tetrahydro-3H-pyrrolo[1,2-c]imidazol-6-yl}-N,N-dimethylsulfuric diamide] | 108
22 | Cc1cc2onc(-n3cc4n(c3=O)C[C@@H](NS(=O)(=O)C3CC3)C4(F)F)c2c(-c2c(F)cc(F)cc2F)n1 [Example 219, N-{(6R)-7,7-difluoro-2-[6-methyl-4-(2,4,6-trifluorophenyl)[1,2]oxazolo[4,5-c]pyridin-3-yl]-3-oxo-2,5,6,7-tetrahydro-3H-pyrrolo[1,2-c]imidazol-6-yl}cyclopropanesulfonamide] | 103
